According to the supplement of paper PMC8967900:

How the values were obtained:
Test in all cases: selective drug sensitivity score (sDSS, relative to normal bone marrow) (sDSS (score)); higher = more potent and effective on the cell line relative to normal bone marrow cells
Conditions in all cases: 72 h
[1] = system: 380
[2] = system: ALL-SIL
[3] = system: COG-LL-317
[4] = system: COG-LL-332h
[5] = system: COG-LL-394h
[6] = system: COG-LL-402h
[7] = system: HAL-01
[8] = system: HPB-ALL
[9] = system: JURKAT
[10] = system: KARPAS-45
[11] = system: MHH-CALL-2
[12] = system: MHH-CALL-3
[13] = system: MN-60
[14] = system: MOLT-14
[15] = system: NALM-16
[16] = system: P12-ICHIKAWA
[17] = system: P30-OHKUBO
[18] = system: PF-382
[19] = system: REH
[20] = system: RPMI-8402
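Note: ALL cell lines in 384-well plates, five doses spanning 10,000-fold, each plate scaled between vehicle and 100 µmol/L benzalkonium chloride controls, sDSS an adapted area-under-curve metric.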

SMILES	selective drug sensitivity score [1]	selective drug sensitivity score [2]	selective drug sensitivity score [3]	selective drug sensitivity score [4]	selective drug sensitivity score [5]	selective drug sensitivity score [6]	selective drug sensitivity score [7]	selective drug sensitivity score [8]	selective drug sensitivity score [9]	selective drug sensitivity score [10]	selective drug sensitivity score [11]	selective drug sensitivity score [12]	selective drug sensitivity score [13]	selective drug sensitivity score [14]	selective drug sensitivity score [15]	selective drug sensitivity score [16]	selective drug sensitivity score [17]	selective drug sensitivity score [18]	selective drug sensitivity score [19]	selective drug sensitivity score [20]
Nc1nc2cc(-c3ccc4ncc(C(=O)N5CCOCC5)n4c3)ccc2o1 [Serabelisib] (top concentration 10000 nM)	-0.44	0.36	-1.54	-1.14	-1.54	-0.14	-1.54	0.66	-1.54	0.06	3.06	-1.54	-1.54	0.96	-1.44	-1.54	1.46	0.36	0.76	-1.54
C#Cc1cccc(Nc2ncnc3cc4c(cc23)OCCOCCOCCO4)c1 [Icotinib] (top concentration 10000 nM)	3.6	0.8	0	0.3	0	0	1.2	0	0	1.4	4.8	1.3	0.6	0	0	0.6	2.1	0.5	0	2.3
COc1cc2c(Oc3ccc4[nH]c(C)cc4c3F)ncnc2cc1OCCCN1CCCC1 [Cediranib] (top concentration 1000 nM)	0	0	0.1	0	0	0	5.7	0	0	0.2	7.2	0	0	0	0	0	2.7	0	0	0
CC1(C)NC(=O)N(c2ccc([N+](=O)[O-])c(C(F)(F)F)c2)C1=O [Nilutamide] (top concentration 10000 nM)	-0.48	0.82	-0.48	-0.48	-0.48	-0.48	2.82	-0.48	1.32	-0.48	7.92	-0.48	-0.48	-0.48	-0.48	-0.48	-0.18	-0.08	0.22	-0.18
C[C@H]1CNCCCN1S(=O)(=O)c1cccc2cncc(F)c12 [Ripasudil] (top concentration 10000 nM)	3.28	0.78	-0.22	1.78	-0.22	-0.22	-0.22	-0.22	-0.22	0.88	-0.02	-0.22	-0.22	-0.22	-0.22	1.18	-0.22	-0.22	-0.22	0.98
Cn1nnc2c(C(N)=O)ncn2c1=O [Temozolomide] (top concentration 100000 nM)	5.66	4.66	-0.04	-0.04	-0.04	-0.04	-0.04	-0.04	2.36	5.76	3.36	4.76	-0.04	3.36	-0.04	4.96	3.36	3.16	6.66	1.46
CC(C)C(=O)Nc1ccc([N+](=O)[O-])c(C(F)(F)F)c1 [Flutamide] (top concentration 10000 nM)	-0.56	-0.26	-0.56	-0.56	-0.26	-0.56	3.94	-0.56	1.84	0.74	9.74	-0.56	-0.56	-0.56	-0.56	0.74	0.94	0.14	-0.56	0.74
C=CCN(/C=C1/C(=O)O[C@H](COC)[C@@]2(C)C1=C(O)C(=O)C1=C2[C@H](OC(C)=O)C[C@]2(C)C(=O)CC[C@@H]12)CC=C [Sonolisib] (top concentration 10000 nM)	-0.56	2.64	-0.06	-0.66	-0.66	-0.76	1.94	-0.76	-0.76	-0.76	0.34	-0.76	-0.76	-0.76	-0.56	-0.76	-0.16	-0.76	-0.76	-0.76
CCOCc1nc2c(N)nc3ccccc3c2n1CC(C)(C)O [Resiquimod] (top concentration 10000 nM)	-4.62	-4.92	-4.02	-4.72	-4.42	-4.32	-4.62	-4.92	-4.52	-4.92	-4.92	-4.82	-1.82	-4.92	-4.92	-4.92	-2.82	-4.72	-4.92	-4.92
CCCN(CCC)C(=O)C1=Cc2ccc(-c3ccc(C(=O)N4CCCC4)cc3)cc2N=C(N)C1 [Motolimod] (top concentration 10000 nM)	-4.38	-3.48	-4.08	-3.18	0.42	-4.48	-4.18	-3.38	-2.58	-3.48	-3.98	-4.48	-4.48	-4.28	-4.48	-3.18	-1.58	-2.28	-2.48	-2.28
Cc1cc(F)c(C(=O)Nc2cccc(-c3nncn3C(C)C)n2)cc1-n1cnc(C2CC2)c1 [Selonsertib] (top concentration 1000 nM)	1	0	0	0	0	0	6.6	0	0	0	11.5	0	0	0	0	0	0.9	0	0	0
Cc1cnc(NC(=O)Nc2cc(Br)c(C)cc2OC[C@@H]2CNCCO2)cn1 [Rabusertib] (top concentration 1000 nM)	-0.74	-0.74	7.36	-0.74	-0.74	1.36	3.06	-0.74	-0.74	0.36	0.66	-0.74	3.56	0.16	-0.74	-0.74	-0.74	-0.64	0.06	0.46
Nc1cc(COc2c(Cl)cc(C[C@H](N)C(=O)O)cc2Cl)c2oc(-c3ccccc3)nc2c1 [JPH203] (top concentration 5000 nM)	1.2	0	0	0	0	0	0.4	0	0	0	0	0	0	0	0	0	2.2	0	0.2	0.5
Oc1ccc2c(c1)CC[C@H](c1ccccc1)[C@@H]2c1ccc(OCCN2CCCC2)cc1 [Lasofoxifene] (top concentration 1000 nM)	-1.28	-1.28	-1.28	-1.28	-1.28	-0.18	-0.08	7.52	-1.28	-1.28	-1.28	-1.28	-1.28	-1.28	-1.28	-1.28	-1.28	-0.98	-1.28	-1.28
CN(CC(=O)N(Cc1ccc(C2CCCCC2)cc1)c1ccc(C(=O)O)cc1)S(=O)(=O)c1c(F)c(F)c(F)c(F)c1F [SH-4-54] (top concentration 25000 nM)	6.06	-3.84	-5.44	-0.04	-5.34	-2.14	-6.34	-6.84	-6.14	-4.24	-7.24	-0.84	-6.54	-4.34	-5.04	-6.04	-5.24	-3.74	-5.04	-5.74
O=C(O)CNC(=O)c1c(O)c2ccccc2n(Cc2ccccc2)c1=O [IOX-2] (top concentration 50000 nM)	8.98	-0.82	-0.82	-0.62	-0.82	-0.82	-0.82	0.68	-0.82	-0.82	1.78	0.88	-0.42	-0.82	-0.62	-0.42	-0.12	-0.82	-0.82	-0.82
C[C@]12CC[C@H](O)CC1=CC[C@@H]1[C@@H]2CC[C@]2(C)C(c3cccnc3)=CC[C@@H]12 [Abiraterone] (top concentration 5000 nM)	0.58	-0.12	-0.12	-0.12	-0.12	-0.12	-0.12	-0.12	0.18	-0.12	0.88	-0.12	-0.12	-0.12	-0.12	-0.12	1.48	-0.12	-0.12	-0.12
CS(=O)(=O)CCNCc1ccc(-c2ccc3ncnc(Nc4ccc(OCc5cccc(F)c5)c(Cl)c4)c3c2)o1 [Lapatinib] (top concentration 1000 nM)	0	0	0	0	0	0	2.2	0	0	0	12.1	0	0	0	0	0	0.3	0	0	0
